Test results from ChEMBL document CHEMBL1201862, “PubChem BioAssay data set” (2004).
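Where inhibition never reached the appropriate level, the endpoint shown equals the highest concentration tested. Otherwise, values were interpolated linearly from a five-concentration, 48-hour dose response in 96-well plates. GI50: concentration for 50% inhibition of growth.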 Active and inactive are the calls of the source. Rule as the data show it: active = GI50 up to about 1.1 µM and inactive = higher.

Assays:
Assay in all cases: growth of human tumour cells (NCI), 48 h
[1] = test system: UACC-62
[2] = test system: NCI-H522
[3] = test system: Malme-3M
[4] = test system: OVCAR-8
[5] = test system: HOP-62
[6] = test system: SF-295
[7] = test system: TK-10
[8] = test system: SW-620
[9] = test system: K562
[10] = test system: U-251
[11] = test system: SK-OV-3
[12] = test system: IGROV-1
[13] = test system: SK-MEL-2
[14] = test system: A549
[15] = test system: MDA-N
[16] = test system: 786-0
[17] = test system: HCC 2998
[18] = test system: NCI/ADR-RES
[19] = test system: COLO 205
[20] = test system: ACHN

Measured: GI50

Cc1c(-c2ccccc2)nn2cc(-c3ccccc3)nnc12
inactive: [1] 17.9 µM | [2] 15.5 µM | [3] 13.3 µM | [4] 67.3 µM | [5] 28.7 µM | [6] 34.8 µM | [7] 42.4 µM | [8] 23 µM | [9] 31 µM | [10] 19.2 µM | [11] 39.3 µM | [12] 21.7 µM | [13] 15.1 µM | [14] 17.5 µM | [15] 19.7 µM | [16] 17.2 µM | [17] 15.5 µM | [18] 39.1 µM | [19] 22.2 µM | [20] 46.3 µM

O=C1c2ccccc2CC12CCC1(CC2)OCCO1
inactive: [1] > 100 µM | [2] > 100 µM | [3] 97.9 µM | [4] > 100 µM | [5] > 100 µM | [6] > 100 µM | [7] > 100 µM | [8] > 100 µM | [9] > 100 µM | [10] > 100 µM | [11] > 100 µM | [12] > 100 µM | [13] > 100 µM | [14] > 100 µM | [15] > 100 µM | [16] > 100 µM | [17] > 100 µM | [18] > 100 µM | [19] > 100 µM | [20] > 100 µM

O=C(OCCN1CCCCC1)C(c1ccccc1)C1(O)CCSCC1 (stereo not given)
inactive: [1] > 100 µM | [2] > 100 µM | [3] > 100 µM | [4] > 100 µM | [5] > 100 µM | [6] > 100 µM | [7] > 100 µM | [8] > 100 µM | [9] > 100 µM | [10] > 100 µM | [11] > 100 µM | [12] > 100 µM | [13] > 100 µM | [14] > 100 µM | [15] > 100 µM | [16] > 100 µM | [17] > 100 µM | [18] > 100 µM | [19] > 100 µM | [20] > 100 µM

COc1cc(-c2ccc(Nc3ccccc3C(=O)O)c(OC)c2)ccc1Nc1ccccc1C(=O)O
inactive: [1] 1.46 µM | [2] 8.87 µM | [3] 39.6 µM | [4] 8.95 µM | [5] 8.57 µM | [6] 11.9 µM | [7] 36.6 µM | [8] 7.38 µM | [9] 1.35 µM | [10] 3.3 µM | [11] 23.4 µM | [12] 21 µM | [13] 19.3 µM | [14] 4.22 µM | [15] 10 µM | [16] 4.52 µM | [17] 21.7 µM | [18] > 46.2 µM | [19] 48.3 µM | [20] 8.69 µM

N#CC(C#N)=C/C=C/c1ccccc1[N+](=O)[O-]
inactive: [1] 3 µM | [2] 3.33 µM | [3] 3.73 µM | [4] 1.96 µM | [5] > 10 µM | [6] > 10 µM | [7] > 10 µM | [8] 4.08 µM | [9] 3.21 µM | [10] > 10 µM | [11] > 10 µM | [12] > 10 µM | [13] > 10 µM | [14] > 10 µM | [15] 2.44 µM | [16] 3.33 µM | [17] > 10 µM | [18] 2.16 µM | [19] 3.93 µM | [20] 4.26 µM
